{"source": "paper PMC3832036", "about": "“The crystal structures of the tri-functional Chloroflexus aurantiacus and bi-functional Rhodobacter sphaeroides malyl-CoA lyases and comparison with CitE-like superfamily enzymes and malate synthases” (BMC Structural Biology, 2013)", "molecules": {"B1": {"name": "malyl-CoA lyase of Chloroflexus aurantiacus (enzyme, Chloroflexus aurantiacus OK-70-fl, UniProt S5N020 1-348, looked up)", "chain": "MRKLAHNFYKPLAIGAPEPIRELPVRPERVVHFFPPHVEKIRARIPEVAKQVDVLCGNLEDAIPMDAKEAARNGFIEVVKATDFGDTALWVRVNALNSPWVLDDIAEIVAAVGNKLDVIMIPKVEGPWDIHFVDQYLALLEARHQIKKPILIHALLETAQGMVNLEEIAGASPRMHGFSLGPADLAASRGMKTTRVGGGHPFYGVLADPQEGQAERPFYQQDLWHYTIARMVDVAVAHGLRAFYGPFGDIKDEAACEAQFRNAFLLGCTGAWSLAPNQIPIAKRVFSPDVNEVLFAKRILEAMPDGSGVAMIDGKMQDDATWKQAKVIVDLARMIAKKDPDLAQAYGL", "notes": "Malyl-CoA lyase of Chloroflexus aurantiacus OK-70-fl, GenBank AGR55786; gene amplified from chromosomal DNA with primers upstream (NdeI at the start codon) and downstream of the gene, cloned into pT7-7; 348 residues (models run from Arg2 to Leu348, the native C-terminus); calculated 38.4 kDa per monomer; Hexamer (dimer of trimers); No tag is named for this construct; also called MCLC; MCL; …"}, "B2": {"name": "malyl-CoA lyase of Rhodobacter sphaeroides (enzyme, Rhodobacter sphaeroides 2.4.1)", "chain": "MSFRLQPAPPARPNRCQLFGPGSRPALFEKMAASAADVINLDLEDSVAPDDKAQARANIIEAINGLDWGRKYLSVRINGLDTPFWYRDVVDLLEQAGDRLDQIMIPKVGCAADVYAVDALVTAIERAKGRTKPLSFEVIIESAAGIAHVEEIAASSPRLQAMSLGAADFAASMGMQTTGIGGTQENYYMLHDGQKHWSDPWHWAQAAIVAACRTHGILPVDGPFGDFSDDEGFRAQARRSATLGMVGKWAIHPKQVALANEVFTPSETAVTEAREILAAMDAAKARGEGATVYKGRLVDIASIKQAEVIVRQAEMISA", "notes": "Malyl-CoA lyase of Rhodobacter sphaeroides 2.4.1, GenBank ACJ71673; model 4L9Z holds Ser2 or Phe3 through Met315 with only the C-terminal three residues missing (lid domain residues 264-318); 36.8 kDa per monomer; Hexamer (dimer of trimers); The His10 tag had no electron density in the crystals; also called MCLR; MCL; source: E. coli BL21(DE3), purified (Ni-Sepharose, gel filtration); not shown: …"}}, "key": {"MCLR [1]": {"target": "T1, MCLR (Cereibacter sphaeroides, UniProt Q3J5L6)", "T1 construct": "gene mcl1", "conditions": "Mg2+; pH 8.5; two closed active sites; not intentionally added, modelled from density"}, "MCLR [2]": {"target": "T1, MCLR", "conditions": "glyoxylate and Mg2+ present; pH 8.5; one of the closed active sites"}, "MCLR [3]": {"target": "T1, MCLR", "conditions": "0.5 mM acetyl-CoA, 100 mM pyruvate, 5 mM MgCl2, MOPS/KOH pH 7.5"}, "[4]": {"target": "the molecule itself", "assay": "SEC; Superdex 200 10/30 GL, 20 mM Tris/HCl pH 7.5, 2 mM MgCl2, 100 mM NaCl, 4°C; molecular weight against protein standards"}}}
{"molecule": "O=CC(=O)O", "note": "[GLX, glyoxylate]", "values": [{"measurement": "X-ray crystal structure, glyoxylate carried over from E. coli, 2.1 A", "setting": "MCLR [1]", "result": "active sites contained electron density that allowed modeling of glyoxylate molecules together with magnesium ions"}]}
{"molecule": "CCC(=O)SCCNC(=O)CCNC(=O)[C@H](O)C(C)(C)COP(=O)(O)OP(=O)(O)OC[C@H]1O[C@@H](n2cnc3c(N)ncnc32)[C@H](O)[C@@H]1OP(=O)(O)O", "note": "[PCO, propionyl-CoA]", "values": [{"measurement": "X-ray crystal structure, crystal soaking, 2.1 A", "setting": "MCLR [2]", "result": "one of these closed active sites was also occupied by propionyl-CoA"}]}
{"molecule": "CC(=O)C(=O)O", "note": "[PYR, pyruvate]", "values": [{"measurement": "reversed phase HPLC of citramalyl-CoA formation", "setting": "MCLR [3]", "result": "formation of citramalyl-CoA was confirmed by reversed phase HPLC analysis"}]}
{"molecule": "B1", "values": [{"measurement": "stoichiometry N", "setting": "[4]", "result": 6}]}
{"molecule": "B2", "values": [{"measurement": "stoichiometry N", "setting": "[4]", "result": 6}]}
